Measurements taken from ChEMBL document CHEMBL1132869, “The first synthesis of clausenamine-A and cytotoxic activities of three biscarbazole analogues against cancer cells” (2000).

Columns and labels:
Settings in all cases: Homo sapiens
A498 = assay: In vitro inhibitory activity against A-498 […] cancer cell lines; format: functional
CAKI-1 = assay: In vitro inhibitory activity against CAKI-1 […] cancer cell lines; format: functional
HL-60 = assay: In vitro inhibitory activity against HL-60 cancer cell lines; format: functional
HT-29 = assay: In vitro inhibitory activity against HT-29 colon cancer cell lines; format: functional
K562 = assay: In vitro inhibitory activity against K-562 cancer cell lines; format: functional
MCF7 = assay: In vitro inhibitory activity against MCF-7 breast cancer cell lines; format: functional
MDA-MB-435 = assay: In vitro inhibitory activity against MDA-MB-435 breast cancer cell lines; format: functional
MDA-N = assay: In vitro inhibitory activity against MDA-N breast cancer cell lines; format: functional
MOLT-4 = assay: In vitro inhibitory activity against MOLT-4 cancer cell lines; format: functional
OVCAR-5 = assay: In vitro inhibitory activity against OVCAR-5 ovarian cancer cell lines; format: functional
RPMI-8226 = assay: In vitro inhibitory activity against […] cancer cell lines; format: functional
SR = assay: In vitro inhibitory activity against SR cancer cell lines; format: functional
SF-295 = assay: In vitro inhibitory activity against SF-295 […] cancer cell lines; format: functional
SK-MEL-5 = assay: In vitro inhibitory activity against SK-MEL-5 melanoma cancer cell lines; format: functional
UO-31 = assay: In vitro inhibitory activity against UO-31 renal cancer cell lines; format: functional
HCT-15 = assay: In vitro inhibitory activity against HCT-15 colon cancer cell lines; format: functional
NCI-H23 = assay: In vitro inhibitory activity against NIC-H23 lung cancer cell lines

SMILES | GI50 (A498) [µM] | GI50 (CAKI-1) [µM] | GI50 (HL-60) [µM] | GI50 (HT-29) [µM] | GI50 (K562) [µM] | GI50 (MCF7) [µM] | GI50 (MDA-MB-435) [µM] | GI50 (MDA-N) [µM] | GI50 (MOLT-4) [µM] | GI50 (OVCAR-5) [µM] | GI50 (RPMI-8226) [µM] | GI50 (SR) [µM] | GI50 (SF-295) [µM] | GI50 (SK-MEL-5) [µM] | GI50 (UO-31) [µM] | GI50 (HCT-15) [µM] | GI50 (NCI-H23) [µM]
COc1cc(OC)c2[nH]c3c(O)c(-c4c(C)cc5c([nH]c6c(OC)cc(OC)cc65)c4O)c(C)cc3c2c1 | 7.82 | 9.89 | 2.82 | 8.03 | 9.7 | 8.68 | 12 | 8.83 | 8.59 | 9.03 | 10.5 | 9.01 | 10.2 | 8.38 | 6.84 | 8.28 | 8.2
Cc1cc2c([nH]c3ccccc32)c(O)c1-c1c(C)cc2c([nH]c3ccccc32)c1O | 15.9 | 14.7 | 32.9 | 6.04 | 12.3 | 11.2 | 15 | 14.7 | 3.62 | 15 | 3.85 | 3.16 | 17.4 | 16.5 | 13 | 10.1 | 12.4
COc1ccc2[nH]c3c(O)c(-c4c(C)cc5c([nH]c6ccc(OC)cc65)c4O)c(C)cc3c2c1 | 4.78 | 4.27 | 0.0321 | 3.71 | 4.04 | 4.49 | 4.34 | 4.5 | 3.23 | 3.82 | 3.61 | 3.97 | 5.11 | 4.34 | 3.78 | 4.2 | 4.48
